Results reported in US8298782B2, “Reversible MHC multimer staining for functional purification of antigen-specific T cells” (priority 2000, dated 2012).

Legend:
[1] = test system: LLO91-99-specific T cells; experiment: 3H-thymidine incorporation proliferation assay of multimer-treated T cells; assay type: cell-based; settings: reagent remains on the cell surface
Procedure: FIG. 3: Interference of MHC multimer staining with T cell function in vitro. (a) LLO91-99-specific T cells were stained for 2 hours with binding (LLO91-99/H2-K^d) or non-binding (p60217-225/H2-K^d) streptavidin-PE tetramer (“tet”) reagents at 4° C. or 37° C. MHC tetramer staining (upper), TCR expression (middle, filled black graph hidden behind TCR^high populations), and annexin V binding (lower) are shown in histogram format. (b) Immunofluorescence staining of LLO91-99-specific T cells one hour after incubation with LLO91-99/H2-K^d streptavidin-Alexa546 tetramers (red) at 4° C. or 37° C. (c) LLO91-99-specific T cells stained for 30 min with binding or non-binding tetramer reagents at 4° C., were then washed to remove unbound reagent and transferred to a chromium release assay (effector to target ratio approx. 5:1). LLO91-99 peptide concentration and percent specific lysis are shown on the x- and y-axes, respectively. […]
FIG. 7: Reversible MHC multimer staining and T cell function. […] (a) Staining for recombinant MHC-molecules (detected by epitope-tag staining, x-axis) on differently treated T cells. […] Numbers of viable bacteria (y-axis) were determined 48 h following Lysteria infection. […]

[2] = test system: LLO91-99-specific T cells; experiment: MHC tetramer staining, TCR expression, annexin V binding and immunofluorescence of T cells; assay type: cell-based
Procedure: (§1) FIG. 3: Interference of MHC multimer staining with T cell function in vitro. (a) LLO91-99-specific T cells were stained for 2 hours with binding (LLO91-99/H2-K^d) or non-binding (p60217-225/H2-K^d) streptavidin-PE tetramer (“tet”) reagents at 4° C. or 37° C. MHC tetramer staining (upper), TCR expression (middle, filled black graph hidden behind TCR^high populations), and annexin V binding (lower) are shown in histogram format. (b) Immunofluorescence staining of LLO91-99-specific T cells one hour after incubation with LLO91-99/H2-K^d streptavidin-Alexa546 tetramers (red) at 4° C. or 37° C. (c) LLO91-99-specific T cells stained for 30 min with binding or non-binding tetramer reagents at 4° C., were then washed to remove unbound reagent and transferred to a chromium release assay (effector to target ratio approx. 5:1). LLO91-99 peptide concentration and percent specific lysis are shown on the x- and y-axes, respectively. The bars indicate lysis of MHC mismatched target cells (10^−8 M LLO91-99 peptide and no peptide conditions only) by effector cells treated with non-binding MHC tetramer reagents (filled bars) or binding reagents (open bars). (d) LLO91-99-specific T cells were treated as in (c), transferred into a proliferation assay in the presence of syngeneic irradiated splenocytes, and stimulated in the presence of peptide or various mitogens (x-axis).
LLO91-99 specific T cell lines were expanded in vitro as described before (18). MHC-multimer staining was performed by incubation of approximately 2 μg H2-K^d Strep-tag® II peptide multimer reagent (IBA GmbH) per 1×10^6 cells at 4° C. for 30 min. For epitope-tag staining cells were washed, fixed briefly in 1% paraformaldehyde, and subsequently stained for anti-HSV tag using an unconjugated primary mouse or rat mAb (e.g. TB067, Novagen) and a secondary anti-mouse or anti-rat-PE antibody (e.g. A85-1, PharMingen). Flow cytometry was performed using a FACSCalibur (Becton Dickinson) and FlowJo software. […] Conventional ^51Cr-release and ^3H-thymidine incorporation assays were performed as described before (18).
Phenotypic changes of cell populations have not been reported so far following epitope-specific T cell staining at low temperatures (4° C.). Under these conditions, TCR-MHC mediated signalling events become not activated. MHC multimer staining at higher temperatures (e.g. at room temperature (RT), or at 37° C.) has been performed to improve the intensity and/or stabilty of the fluorescent signal through epitope-specific internalization of the multimer. In order to analyze the impact of differential treatment of T cells on their phenotype, we compared LLO91-99-specific T cell lines following staining with LLO91-99/H2-K^d tetramers at 4° C. or 37° C. As a negative control, MHC tetramers containing different Listeria epitope ([…]) were used; these reagents cannot bind to TCRs of LLO91-99-specific T cells, thus controlling for potential peptide-independent effects.

[3] = test system: LLO91-99-specific T cells; experiment: 51Cr-release cytotoxicity assay of multimer-treated CTLs; assay type: cell-based
Procedure: as §1
FIG. 7: Reversible MHC multimer staining and T cell function. LLO91-99-specific T cells were stained for 30 min with binding LLO91-99/H2-K^d Strep-tag® II peptide/β2m-Strep-tag® II peptide-HSV-tag:Strep-Tactin® polypeptide (IBA GmbH) or non-binding (p60217-225/H2-K^d) multimer reagents and then extensively washed over 4 h in the presence or absence or d-biotin (1 mM, all done at 4° C.) prior to assays or adoptive transfer. (a) Staining for recombinant MHC-molecules (detected by epitope-tag staining, x-axis) on differently treated T cells. […] Numbers of viable bacteria (y-axis) were determined 48 h following Lysteria infection. […]

Listeria monocytogenes = experiment: adoptive transfer of multimer-treated T cells, protection against Listeria infection; assay type: in vivo, BALB/c mice
Description: Six hours later, mice were infected with 2×10^4 Listeria monocytogenes. […] Control mice received NaCl only.
(a) Staining for recombinant MHC-molecules (detected by epitope-tag staining, x-axis) on differently treated T cells. (b) Cytotoxicity (% specific lysis, y-axis) of differently treated T cells in response to LLO91-99 peptide-coated target cells (peptide titration, x-axis) with an effector to target cell ratio of approx. 5:1, compare with FIG. 1c. (c) Proliferation (y-axis) of differently treated T cells stimulated with epitope or various mitogens (indicated on the x-axis) in the presence of syngeneic irradiated splenocytes. Compare with FIG. 1d. (d) Protection against Lysteria monocytogenes infection following adoptive transfer of 4.1×10^6 LLO91-99-specific T cells treated with binding (LLO91-99) or non-binding (p60217-225) MHC multimer reagents (indicated to the left). […] Numbers of viable bacteria (y-axis) were determined 48 h following Lysteria infection. Data are representative of three independent experiments, each with 2 mice per group.
LLO91-99 specific T cells were stained with H2-K^d Strep-tag® II peptide multimer reagents (IBA GmbH) at 4° C. […] Adoptive cell transfer was performed by injection of 1×10^7 cells—per mouse per group—into the tail vein of naive BALB/c mice.

[4] = molecular target: T1, Strep-Tactin® polypeptide (mutated streptavidin) (Streptomyces avidinii, UniProt P22629, E68V/S69T/V71R); settings: read-out: Kd of Strep-tag II peptide with Strep-Tactin; cited from earlier work
T1 construct: literature IBA GmbH
T1 sequence (P22629 38-163 E68V/S69T/V71R): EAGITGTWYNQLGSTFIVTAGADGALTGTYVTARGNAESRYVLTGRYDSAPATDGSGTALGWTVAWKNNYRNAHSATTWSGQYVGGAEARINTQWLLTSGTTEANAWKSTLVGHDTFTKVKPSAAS

| Substance | proliferation in response to antigen or mitogenic stimulation [1] | MHC tetramer staining ([2]; 2 h incubation at 4° C.) | MHC tetramer staining ([2]; 2 h incubation at 37° C.) | annexin V binding (early marker of apoptosis) ([2]; after staining at 37° C.) | surface TCR expression ([2]; after staining at 37° C.) | immunofluorescence microscopy staining pattern ([2]; incubation at 4° C.) | immunofluorescence microscopy staining pattern ([2]; incubation at 37° C.) | lysis in the absence of peptide (spontaneous/bystander lysis) ([3]; reagent not dissociated) | maximum % specific lysis ([3]; stained CTLs washed, then 37° C., constant effector to target ratio) | peptide sensitivity of cytotoxicity ([3]; various concentrations of LLO91-99 peptide) | protection against Listeria infection following adoptive transfer (Listeria monocytogenes; 4.1×10^6 cells, reagent not dissociated) | LLO91-99-specific T cells recovered from recipient mice after transfer (Listeria monocytogenes; compared to control cells) | protection against Listeria infection (viable bacteria in spleen 48 h) (Listeria monocytogenes; transfer of 1×10^6 treated CTLs) | protection against Listeria infection (viable bacteria in spleen 48 h) (Listeria monocytogenes; transfer of 1×10^7 treated CTLs, listed as LLO91-99/H2-K^d tetramer reagents) | protection against Listeria infection (viable bacteria in spleen 48 h) (Listeria monocytogenes; transfer of 1×10^7 treated CTLs, listed as binding MHC tetramers) | Kd [4] [nM] |
| --- | --- | --- | --- | --- | --- | --- | --- | --- | --- | --- | --- | --- | --- | --- | --- | --- |
| LLO91-99/H2-K^d tetramers: conventional tetramers of H2-K^d/LLO91-99 complexes with PE- or Alexa546-conjugated streptavidin | poorly proliferate | high intensity staining | reduced and more diffuse staining pattern | increased binding of annexin V | substantial downregulation of surface TCR | typical surface-staining pattern | most multimers are internalized | increased lysis in the absence of LLO91-99 peptide addition | reduction in maximum % specific lysis | decreased peptide sensitivity | significantly reduced protection | much lower numbers | indistinguishable from untreated mice | dramatic loss of protective capacity | still confer some significant Listeria-specific protection | – |
| WSHPQFEK [Strep-tag® II peptide] | – | – | – | – | – | – | – | – | – | – | – | – | – | – | – | ~1000 |
